Laboratory results as given in PMC11996864, “A small-molecule inhibitor of BCL10-MALT1 interaction abrogates progression of diffuse large B cell lymphoma” (The Journal of Clinical Investigation, 2025).
Values joined by “and” are separate entries in the source; they are usually repeats but may differ in a detail not shown here. Equal values may be shown once.

Key:
[1] = system: IL-2 secretion from primary mouse splenocytes; experiment: Secreted IL-2 ELISA, stimulated primary splenocytes; assay type: cell-based; details: for IL-2 protein level (% of control): Suppl Fig. 4B
Description: Plasmids. Plasmids for transfection were verified with Sanger Sequencing. Unless otherwise indicated, plasmids were made by subcloning cDNA fragments from constructs described in previous publications, as noted, and/or site directed mutagenesis. Plasmids in the pcDNA3 or pcDNA3.1 backbone include HA-MALT1(isoform B) (2), HA-MALT1(DD+Ig1-2) (aa 1- […]
MALT1(Ig1-2) V189R, HA-MALT1(Ig1-2) W203_Q205delinsAAA (Vector Builder), HA-MALT1(Ig1-2) H257_Q259delinsAAA (Vector Builder), HA-MALT1(Ig1-2)
P254_P256delinsAAA (Vector Builder), HA-MALT1(Ig1-2) H269_T271delinsAAA (Vector Builder), HA-MALT1(Ig1-2) K272_L274delinsAAA (Vector Builder), HA-MALT1 V189R (Vector Builder), HA-MALT1 V81R, HA-BCL10 (GeneCopoeia, Cat# M0769-M07), HA-BCL10 E53R, Myc-BCL10 (previously called CIPER) (3), Myc-BCL10 E53R, Myc-RICK (4), Myc-MAVS (subcloned from FLAG-MAVS (5)), and empty vector pCDNA3.1HA as a control.
ELISA-based protein-protein interaction assay. On a high-binding 96-well ELISA microplate (Greiner Cat# 655061), 100 ng of His-tagged recombinant human full-length BCL10 protein (Novus Cat# NBP1-99064) or in 100 µl PBS was allowed to adhere overnight at 4°C. The plate was blocked with 5% BSA in PBS for 1 hour at room temperature. After washing twice with PBS-T, a mixture of 100 ng of GST-tagged recombinant human full-length MALT1 protein (Novus Biologicals Cat# H00010892-P01) and compound that was preincubated for 1 hour in 100 μl PBS was added to the plate for 1 hour at room temperature. After washing three times with PBS-T, anti-MALT1 antibody (Cell Signaling Technology, Cat# 2494) in 5% BSA in PBS was added at 1:1000 dilution for 1 hour at room temperature. After washing three times with PBS-T, HRP-conjugated secondary antibody in 5% BSA in PBS was added at 1:5000 dilution for 1 hour at room temperature. After washing three times with PBS-T, 100 µl of 3,3’,5,5’-tetramethylbenzidine (TMB) substrate solution (Thermo Scientific, Cat# 34028) was added for up to 15 minutes, and 100 µl of 2 M sulfuric acid was added to stop the reaction. The plate was read at 450 nm using a spectrophotometer (Molecular Devices SpectraMax i3). The MyoD1/ID ELISA was performed as above except that 100 ng of recombinant human His-tagged MyoD1 (Proteintech, Cat# Ag13186) was plated overnight at 4°C prior to the addition of 100 ng of recombinant human GST-ID1 (Proteintech, Cat# Ag13359) preincubated to with compounds. The anti-GST antibody (clone 26H1, Cell signaling Technology, Cat #2624) was used to detect bound ID1.
Cytokine ELISAs. Cytokines in cell culture supernatants were measured 20-24h after treatment with 0, 0.01, 0.03, 0.1, 0.3, 1, or 3 µM of compounds using the following ELISA kits according to the manufacturer’s instructions: Human IL-2 ELISA (BioLegend Cat# 431804), Human IL-6 ELISA (BioLegend Cat# 430504), and Human IL-10 ELISA (BioLegend Cat# 430604). TMD8 and OCI-Ly3 cells were treated with specific doses of compounds in serum-free media for 20 hours. Jurkat T cells were pretreated with specific doses of compounds for 8 hours in serum-free media, then stimulated with PMA/ionomycin for 16 hours prior to the collection of supernatants.
Mouse splenocytes were isolated from spleens of C57/BL6 mice by passing spleens through a 70 micron filter followed by red blood cell lysis using ACK lysing buffer (Quality Biologics, Cat# 118-156-101). […]
Mouse T-Activator CD3/C28. Supernatant was collected at 24 hours and mouse IL-2 levels were analyzed via ELISA (R&D Systems, Cat# DY402-05).

[2] = system: TMD8 cells; experiment: IL6 and IL10 mRNA, qRT-PCR; assay type: cell-based, human; details: TMD8, 1 μM; for IL6 and IL10 mRNA levels: 24 hours, result in words
Description: TMD8 cells were treated with small molecule inhibitors for 24 with cultures conditions described above except that FBS was 5%. OCI-Ly3 were treated with inhibitors in serum free media for 24 hours. Total RNA extraction from cell lines was performed using RNeasy Plus Mini Kit (Qiagen, Cat# 74136). […]
Kit. RNA was transcribed into cDNA using High-Capacity cDNA Reverse Transcription Kit (Applied Biosystems, Cat# 4368814) according to manufacturer’s instructions. RT-PCR was performed using TaqMan Universal PCR Master Mix (Applied Biosystems, Cat# 4304437) and run on a StepOnePlus Real-Time PCR machine (Applied Biosystems). The following probes from ThermoFisher Scientific were used for qRT-PCR: IL2 TaqMan probe Hs00174114, IL6 TaqMan

[3] = system: OCI-Ly1 xenografts; experiment: OCI-Ly1 xenograft in NSG mice; assay type: in vivo, mouse; details: daily i.p., result in words
Description: TMD8 cells were engrafted into 8-week-old female NOD.CB17-Prkdc^scid/J (NOD-SCID) mice from The Jackson Laboratory by subcutaneous injection of 10 × 10^6 cells resuspended in 50% Cultrex Basement Membrane Extract (R&D Systems, catalog 3632-010-02) into the right flank. OCI-Ly3 cells were engrafted into 5-week-old female NOD.Cg-Prkdc^scid Il2rg^tm1Wjl/SzJ (NSG) mice from The Jackson Laboratory by subcutaneous injection of 2.5 × 10^6 cells resuspended in Cultrex as above. OCI-Ly1 cells were engrafted into 6.5-week-old female NSG mice from The Jackson Laboratory by subcutaneous injection of 20 × 10^6 cells resuspended in Cultrex as above. For all xenograft models, when tumors reached an average volume of 100 mm^3, mice were randomized to receive M1i-124 (50 mg/kg i.p. per day), or equivalent volume of DMSO vehicle (50 μL i.p. per day). […] Tumor size was measured 3 times a week using a caliper and calculated using the formula (smallest diameter^2 × largest diameter)/2. Mice were sacrificed 24 hours after the last injection. Mice were sacrificed when the largest tumors reached 2,500 mm^3. For TMD8 xenograft experiments, tumors and various organs, including lung, heart, liver, and kidney, were collected and fixed in 10% buffered formalin, embedded in FFPE blocks, sectioned, and stained with H&E. Sections were evaluated by a board-certified pathologist.

SMILES	IL-2 secretion from primary mouse splenocytes ([1]; 1 μM, PMA/Iono or anti-CD3/CD28, result in words)	IL-2 protein level (% of control) ([1]; CD3/CD28 treated)	IL-2 protein level (% of control) ([1]; PMA/Iono treated)	IL-10 mRNA (normalized) [2]	IL6 and IL10 mRNA levels [2]	OCI-Ly1 xenograft growth [3]	IL-2 protein level (% of control) ([1]; CD3/CD28 treated, 1 uM)	IL-2 protein level (% of control) ([1]; PMA/Iono treated, 1 uM)
O=S(=O)(NCc1ccc2c(c1)OCO2)c1ccc(Cc2ccc(S(=O)(=O)NCc3ccc4c(c3)OCO4)cc2)cc1 [M1i-124]	reduced IL-2 secretion	50.4652 % of control and 31.9351 % of control and 38.7736 % of control	60.6294 % of control and 65.2902 % of control and 36.6638 % of control	0.19 and 0.23 and 0.25 and 0.2 and 0.18 and 0.32	significantly decrease IL6 and IL10 mRNA levels	no effect	–	–
COc1ccc(CNS(=O)(=O)c2ccc(Cc3ccc(S(=O)(=O)NCc4ccc(OC)cc4)cc3)cc2)cc1 [M1i-124d1]	–	–	–	0.31 and 0.33 and 0.37 and 0.53 and 0.28 and 0.52	significantly decrease IL6 and IL10 mRNA levels	–	–	–
CN1CCCC(CN2c3ccccc3Sc3ccccc32)C1 (stereo not shown) [Mepazine, mepazine, reference compound]	–	–	–	–	–	–	96.0182 % of control and 76.5551 % of control	66.5904 % of control and 66.2291 % of control
